In patent US10613104B2, “Assay to determine anticoagulants in blood or blood plasma” (ZAFENA AB, priority 2014, dated 2020):

Columns and labels:
[1] = tested on: prothrombin time (PT) of normal citrated blood; experiment: Three wet-chemistry Owren PT methods (Simple Simon PT) on normal citrated blood with added apixaban; format: biochemical
Description: Experimental work was performed with the commercially available ambient room temperature coagulation instrument, Simple Simon P T Zafena A B, Linköping, Sweden, with functions described in EP 1 636 595 B2. One instrument or reader was used for each PT-method. Alternatively, the same instrument could be used for all PT-methods.
The three instruments were used together standing next to one another on a laboratory bench in thermal equilibrium with the ambient room temperature of the laboratory.
The PT-reagent was the one delivered together with lot N223M of the Simple Simon PT product, a reagent of Owren-type that thus contains effective amounts of thromboplastin, fibrinogen and FV (the thromboplastin of rabbit brain origin and the fibrinogen and the FV of bovine blood plasma origin). Other Owren type reagents could also be used.
The reagent was in portions of 200 μL to which sample, citrated blood or citrated blood plasma, was added and mixed. The addition was by an end-to-end plastic capillary mounted at one end of a tubular body with a displacement mechanism in the other end, this to allow convenient mixing of sample and reagent. Such Mixxocaps with 10 μL capillaries are supplied with the Simple Simon PT product. To perform the experiments described, some Mixxocaps were fitted with 20 μL capillaries, or 5 μL capillaries instead of the 10 μL capillaries with which they were supplied by the manufacturer.
These blood samples and a blood sample with an INR 2.3 were analyzed by Simple Simon PT using sample volumes of 20 μL, 10 μL and 5 μL in 200 μL reagents. […]

[2] = tested on: prothrombin time (PT) of control plasma NKP; experiment: 20 μL and 5 μL PT methods with reagent P161 at various added CaCl2, NKP + 500 μg/L apixaban; format: biochemical
Description: With each reagent three samples were analyzed by the two PT methods of the anticoagulant assay, the 20 μL-method and the 5 μL-method. Two of the samples were reference samples, the control plasmas NKP and ZAP, with established INR values of 1.00 and 2.50, respectively.

[3] = apixaban 63 μg/L in normal citrated blood
[4] = apixaban 125 μg/L in normal citrated blood
[5] = apixaban 250 μg/L in normal citrated blood
[6] = apixaban 500 μg/L in normal citrated blood
[7] = apixaban 714 μg/L in normal citrated blood
[8] = apixaban 1000 μg/L in normal citrated blood

COc1ccc(-n2nc(C(N)=O)c3c2C(=O)N(c2ccc(N4CCCCC4=O)cc2)CC3)cc1 [apixaban]
INR 10 μL sample [1, 3]: 1.19 | INR 20 μL sample [1, 3]: 1.41 | INRc 5 μL sample [1, 3]: 1.06 | INRc 10 μL sample [1, 3]: 1.12 | INRc 20 μL sample [1, 3]: 1.21 | INRo [1, 3]: 0.96 | ΔINRc 10 μL − 5 μL [1, 3]: 0.06 | ΔINRc 20 μL − 5 μL [1, 3]: 0.15 | INR 10 μL sample [1, 4]: 1.32 | INR 20 μL sample [1, 4]: 1.75 | INRc 5 μL sample [1, 4]: 1.16 | INRc 10 μL sample [1, 4]: 1.26 | INRc 20 μL sample [1, 4]: 1.49 | INRo [1, 4]: 1.02 | ΔINRc 10 μL − 5 μL [1, 4]: 0.10 | ΔINRc 20 μL − 5 μL [1, 4]: 0.32 | INR 5 μL sample [1, 5]: 1.32 | INR 10 μL sample [1, 5]: 1.64 | INR 20 μL sample [1, 5]: 2.61 | INRc 5 μL sample [1, 5]: 1.39 | INRc 10 μL sample [1, 5]: 1.60 | INRc 20 μL sample [1, 5]: 2.18 | INRo [1, 5]: 1.07 | ΔINRc 10 μL − 5 μL [1, 5]: 0.21 | ΔINRc 20 μL − 5 μL [1, 5]: 0.79 | INR 5 μL sample [1, 6]: 1.66 | INR 10 μL sample [1, 6]: 2.27 | INR 20 μL sample [1, 6]: 4.58 | INRc 5 μL sample [1, 6]: 1.81 | INRc 10 μL sample [1, 6]: 2.29 | INRc 20 μL sample [1, 6]: 3.73 | INRo [1, 6]: 1.09 | ΔINRc 10 μL − 5 μL [1, 6]: 0.48 | ΔINRc 20 μL − 5 μL [1, 6]: 1.92 | INR 5 μL sample [1, 7]: 1.87 | INR 10 μL sample [1, 7]: 2.78 | INR 20 μL sample [1, 7]: 6.06 | INRc 5 μL sample [1, 7]: 2.08 | INRc 10 μL sample [1, 7]: 2.86 | INRc 20 μL sample [1, 7]: 4.88 | INRo [1, 7]: 0.91 | ΔINRc 10 μL − 5 μL [1, 7]: 0.78 | ΔINRc 20 μL − 5 μL [1, 7]: 2.80 | INR 10 μL sample [1, 8]: 3.50 | INR 20 μL sample [1, 8]: 8.76 | INRc 5 μL sample [1, 8]: 2.51 | INRc 10 μL sample [1, 8]: 3.69 | INRc 20 μL sample [1, 8]: 6.94 | INRo [1, 8]: 0.74 | ΔINRc 10 μL − 5 μL [1, 8]: 1.16 | ΔINRc 20 μL − 5 μL [1, 8]: 4.43 | 5 uL-method NKP + 500 INR5c ([2]; reagent P161, added Ca2+ 4 mM): 1.18 | 20 uL-method NKP + 500 INR20c ([2]; reagent P161, added Ca2+ 4 mM): 1.83 | 20 uL-method NKP + 500 INR20c ([2]; reagent P161, added Ca2+ 8 mM): 2.15 | 20 uL-method NKP + 500 INR20c ([2]; reagent P161, added Ca2+ 16 mM): 3.15 | 20 uL-method NKP + 500 INR20c ([2]; reagent P161, added Ca2+ 24 mM): 3.30 | 5 uL-method NKP + 500 INR5c ([2]; reagent P161, added Ca2+ 32 mM): 1.49 | 20 uL-method NKP + 500 INR20c ([2]; reagent P161, added Ca2+ 32 mM): 3.38
